Experimental data from US12357601B2, “Composition for inhibiting growth of bacterium having menaquinone synthesis pathway through futalosine or futalosine derivative” (NOSTER INC., priority 2017, dated 2025).
Converted amounts (≈) assume the structure as drawn.

Key:
[1] = tested on: Campylobacter coli ATCC33559 strain; assay: Proliferation inhibitory effect (in vitro) on Campylobacter coli, absorbance and colony count; format: cell-based; details: 100, 200, 400 μM, 24 hr; concentration dependent; strong compared to linoleic acid
[2] = tested on: Helicobacter pylori SS1 strain, TN2GF4 strain, TK1029 strain, RC-1 strain; assay: Proliferation inhibitory effect (in vitro) of low concentration fatty acid, shaking culture 24 hr, colony count; format: cell-based; details: fatty acid 20 μM, 24 hr; SS1, TN2GF4, TK1029, RC-1 strains; compared with linoleic acid
Method: Helicobacter pylori SS1 strain, TN2GF4 strain, TK1029 strain, RC-1 strain were each inoculated to a 6-well plate containing 2 mL of a liquid medium (BHI added with 5% FCS), and fatty acid (20 μM) and menaquinone (MK-4) 100 μg/mL were added. After shaking culture for 24 hr at temperature 37° C., microaerobic conditions (5% 02, 10% CO2, 85% N2), the culture medium was applied on a Helicobacter agar plate, cultured for 3 days and the resulting colonies were counted (FIG. 2-1 A: SS1 strain, FIG. 2-2 B: TN2GF4 strain, FIG. 2-3 C: TK1029 strain, FIG. 2-4 D: RC-1 strain. Item 1: control (menaquinone no addition), Item 2: control (menaquinone 100 μg/mL addition), Item 3: HYA 20 μM (menaquinone no addition), Item 4: HYA 20 μM (menaquinone 100 μg/mL addition), Item 5: linoleic acid 20 μM (menaquinone no addition), Item 6: linoleic acid 20 μM (menaquinone 100 μg/mL addition). *, P<0.0001 vs. Control (ordinary one-way ANOVA)).

CD19 and CD20 expression = assay: Gastric MALT lymphoma model: CD19, CD20 expression in gastric mucosa (real-time RT-PCR); format: in vivo, C57BL/6 female mouse; details: 200 μM in water; 6 months after infection with Helicobacter suis TKY strain; relative to GAPDH
Method: (§1) Helicobacter suis is suspected to be the cause of the onset of gastric MALT lymphoma. A 5-week-old C57BL/6 female mouse was orally infected only once with a stomach suspension of Helicobacter suis TKY strain-infected mouse and dissected 6 months after the infection, and the number of bacteria in the gastric mucosa was counted according to the method described in Example 5. Water added with HYA (200 μM) was given to the mouse from one week before the infection.
CD19 and CD20 are cell surface markers for B-cell lymphoma. Using real-time reverse transcription PCR (real-time RT-PCR), the expression levels of CD19 and CD20 were measured. Using NucleoSpin (registered trade mark) RNA Kit (Takara Bio Inc.), RNA was prepared from mouse gastric mucosa. Using PrimeScript™ RT Reagent Kit (Takara Bio Inc.), cDNA was prepared from RNA. For real-time RT-PCR, KAPA SYBR Fast ROX Low qPCR kit (KAPA BIOSYSTEMS Inc.) and QuantStudio7 Flex Real-time PCR System (Thermo Fisher Scientific Inc.) were used.
The conditions of 2-step real-time RT-PCR were as follows.
The expression level of CD19 or CD20 relative to that of glyceraldehyde-3-phosphate dehydrogenase (GAPDH) was converted to a numerical value and the value was further adjusted to make the average expression of CD19 or CD20 of the non-infection group 1. […]

[3] = tested on: Helicobacter pylori SS1 strain or TN2GF4 strain; assay: Inhibitory effect (in vivo) of fatty acid, number of bacteria in gastric mucosa of infected mice; design: species or system C57BL/6 female mouse
Method: A 5-week-old C57BL/6 female mouse was orally infected 3 times with Helicobacter pylori SS1 strain or TN2GF4 strain (1-5×10^8 CFU) every other day and dissected at 2 weeks from the final infection day, and the number of bacteria in the gastric mucosa was counted. The measurement and the number of bacteria in the gastric mucosa was performed as follows. First, the greater curvature of the stomach of the mouse was incised with scissors for ophthalmology, and the contents were washed away with phosphate buffered saline (pH 7.4, PBS). Next, the mucous membrane was scraped with a slide glass, 1 mL of PBS was added, the mixture was sandwiched between ground glass parts of two glass slides and evenly crushed to prepare a gastric mucosa suspension. The culture medium was applied on a Helicobacter agar plate, cultured for 3 days and the resulting colonies were counted. Water added with fatty acid (200 μM) (HYA, HYB, KetoA, KetoC, linoleic acid, oleic acid, DHA, EPA) was given to the mice from 1 week before infection. The control was free of fatty acid addition (FIG. 3-1 A: infected with SS1 strain, FIG. 3-2 B: infected with TN2GF4 strain).

[4] = tested on: Helicobacter pylori TK1029 strain; assay: Proliferation inhibitory effect (in vitro) by ED50 measurement, viable count; format: cell-based
Method: Helicobacter pylori TK1029 strain (clinical isolate) was cultured in Brucella broth containing 10% FCS and 1×10^6 CFU of bacteria were respectively added to 3 mL of Brain-Heart Infusion Broth (BHI) media (previously added with free fatty acid (stearic acid, oleic acid, linoleic acid, ricinoleic acid, HYA) at 0, 0.5, 5, 50, 500 μg/mL) containing 2% FCS in a 6-well plate. Shaking culture was performed under conditions of temperature 37° C., humidity 100%, microaerobic (5% 02, 10% CO2, 85% N2), the culture medium (0.1 mL) from each well was applied to NISSUI plate, Helicobacter agar medium 15 hr and 25 hr later, and the number of colonies formed after microaerobic culture for 3 days was counted.

[5] = tested on: Campylobacter jejuni ATCC33560 strain; assay: Proliferation inhibitory effect (in vitro) on Campylobacter jejuni, absorbance and colony count; format: cell-based; details: 100, 200, 400 μM, 24 hr; concentration dependent; strong compared to linoleic acid
[6] = tested on: Helicobacter suis TKY strain; assay: Gastric MALT lymphoma model: number of Helicobacter suis bacteria in the stomach 6 months after infection; format: in vivo, C57BL/6 female mouse; details: 200 μM in water
Method: as §1
The measurement of the number of Helicobacter suis bacteria in the stomach of the infected mouse was performed in the same manner as in Example 5. The relative value of the number of bacteria in gastric mucosa when that with HYA non-administration is 1 is shown (FIG. 5-1 A, Item 1: HYA non-administration group, Item 2: HYA administration group).

SMILES: CCCCC/C=C\CC(O)CCCCCCCCC(=O)O (stereo not drawn) [HYA, 10-hydroxy-cis-12-octadecenoic acid]
- proliferation of Campylobacter coli ATCC33559 strain [1]: inhibited proliferation
- proliferation of Helicobacter pylori (colony count) [2]: suppressed proliferation
- CD19 relative expression level, compared to the non-administration group (CD19 and CD20 expression): significantly suppressed
- CD20 relative expression level, compared to the non-administration group (CD19 and CD20 expression): significantly suppressed
- number of Helicobacter pylori in the gastric mucosa, compared to the control ([3]; 200 μM in water from 1 week before infection, 2 weeks from final infection, both SS1 and TN2GF4 strain): significantly suppressed
- suppressive action compared to HYB, KetoA, KetoC, linoleic acid, oleic acid, DHA and EPA ([3]; 200 μM in water, SS1 and TN2GF4 strain infected mice): strong suppressive action
- ED50 value times lower than that of ricinoleic acid ([4]; 15 hr after culturing): about 10 times
- ED50 value, 15 hr later ([4]; 15 hr shaking culture, BHI 2% FCS, viable count): 0.5 µg/mL (≈ 1.68 µM)
- ED50 values compared with the other fatty acids ([4]; 25 hr after culturing): remarkably lower than or the same level as
- ED50 value, 25 hr later ([4]; 25 hr shaking culture, BHI 2% FCS, viable count): 0.5 µg/mL (≈ 1.68 µM)
- proliferation of Campylobacter jejuni ATCC33560 strain [5]: inhibited proliferation
- number of Helicobacter suis bacteria in gastric mucosa, compared to the non-administration group [6]: significantly suppressed
